Where two headings read alike, the source gives them in different places.

In one data set the test system is HIV NL4.3 strain. Briefly: HIV infectivity assay, reporter cell line HeLa-CD4-LTR-LacZ, β-Gal activity (Tat protein inhibition). Type of data set: cell-based, HIV-1 (NL4.3). The conditions noted are these: for IC50: Human immunodeficiency virus 1, read-out: Infectivity IC50, HeLa-CD4-LTR-LacZ. On the procedure: (§1) Next, the activity of these leads against HIV infection was evaluated using the reporter cell line HeLa-CD4-LTR-LacZ, which stably expresses the β-galactosidase (β-Gal) gene under the control of the HIV 5′ LTR. The HIV NL4.3 strain was used for these studies and β-Gal activity was measured 72 hrs post infection (FIG. 3A). Cytotoxicity assays using Cell-Titer-Glo were performed in parallel to assess cell viability (FIG. 3A). […] Their anti-HIV activity was further assessed in acute replication of Jurkat T cells with the NL4.3 strain (FIG. 3A). […] These OM10.1 cells contain a single integrated wild-type provirus, while ACH-2 cells contain a single integrated provirus with a TAR mutation C37T, defective Tat-TAR feedback loop (FIG. 3B).

Data set [1] is described as follows: Cytotoxicity assay, Cell-Titer-Glo, HeLa-CD4-LTR-LacZ. As to conditions: human, hela-cd4-ltr-lacz cells, Infectivity CC50, HeLa-CD4-LTR-LacZ. As for the experimental part: as §1

As to `O=C(Cn1cc(C(F)(F)F)cc(Cl)c1=O)Nc1cccc2c1OCCO2` [compound 46615], the half-inhibitory concentration (IC50) (commonly the concentration that gives 50% inhibition) in the data set with HIV NL4.3 strain (analogs of TT-44863 (Table 2)) was over 100 µM. Besides, in data set [1] (analogs of TT-44863 (Table 2)), the CC50 (usually the concentration giving 50% cytotoxicity) was over 100 µM.

With `CCN(CC(=O)Nc1cc(C(F)(F)F)ccc1OCCOC)C(=O)Cc1ccccc1` [compound 45172], the IC50 with HIV NL4.3 strain (analogs of TT-44863 (Table 2)) was about 80 µM. Moreover, the 50% cytotoxic concentration (CC50) in data set [1] (analogs of TT-44863 (Table 2)) was about 80 µM.

For `CCN(CCCN1CCCC1=O)C(=O)c1cc(C)n(-c2ccccc2)n1` [GB-16], the IC50 in the data set with HIV NL4.3 strain (analogs of TT-44881 (Table 1)) is over 100 µM. The same compound yielded a half-maximal cytotoxic concentration (CC50) in data set [1] (analogs of TT-44881 (Table 1)) of over 100 µM.

On to `COCCOc1ccccc1NC(=O)Cn1cccc(Cl)c1=O` [compound 46631], for which the IC50 in the data set with HIV NL4.3 strain (analogs of TT-44863 (Table 2)) was over 100 µM. The CC50 in data set [1] (analogs of TT-44863 (Table 2)) is over 100 µM.

For the compound `O=C(NCCCN1CCCC1=O)c1nn(Cc2ccccc2)c2c1CCC2` [compound 46885], the 50% inhibitory concentration (IC50) in the data set with HIV NL4.3 strain (analogs of TT-44881 (Table 1)) is over 100 µM. The compound further gave a 50% cytotoxic concentration (CC50) in data set [1] (analogs of TT-44881 (Table 1)) of over 100 µM.

Turning to `COc1ccc(C(F)(F)F)cc1NC(=O)Cn1cc(C(F)(F)F)cc(Cl)c1=O` [TT-46600], in the data set on HIV NL4.3 strain (HeLa-CD4 cell NL4.3 infection assays), the “increase of potency vs TT-44863” value was ~ 5 fold. The IC50 with HIV NL4.3 strain (analogs of TT-44863 (Table 2)) lay within 1 to 10 µM. Besides, in data set [1] (analogs of TT-44863 (Table 2)), the 50% cytotoxic concentration (CC50) is over 100 µM.

Take `COc1ccc(OC(F)(F)F)cc1NC(=O)Cn1cc(C(F)(F)F)cc(Cl)c1=O` [compound 45]: the IC50 in the data set with HIV NL4.3 strain (analogs of TT-44863 (Table 2)) fell in the range of 1 to 10 µM. For the same compound, in data set [1] (analogs of TT-44863 (Table 2)), the CC50 is over 100 µM.

Turning to `COc1ccc(C)cc1NC(=O)Cn1cc(C(F)(F)F)cc(Cl)c1=O` [compound 46689], in the data set with HIV NL4.3 strain (analogs of TT-44863 (Table 2)), the IC50 was over 100 µM. The same compound displayed a CC50 in data set [1] (analogs of TT-44863 (Table 2)) of over 100 µM.

Turning to `O=C(NCCCN1CCCC1=O)c1nn(-c2ccccc2)c2c1CCC1(C2)OCCO1` [GB-10], the IC50 in the data set on HIV NL4.3 strain (analogs of TT-44881 (Table 1)) was over 100 µM. The same compound showed a CC50 in data set [1] (analogs of TT-44881 (Table 1)) of over 100 µM.

With `O=C1CCCN1CCCN(Cc1ccccc1)C(=O)c1nn(-c2ccccc2)c2c1CCC2` [GB-09], in the data set on HIV NL4.3 strain (analogs of TT-44881 (Table 1)), the IC50 lay in the range of 25 to 50 µM. In data set [1] (analogs of TT-44881 (Table 1)), this compound came in with a CC50 of 25 to 50 µM.

With `O=C(NCCCN1CCCC1=O)c1nn(-c2ccccc2)c2c1CCC(O)C2` (stereo not drawn) [GB-12], the 50% inhibitory concentration (IC50) with HIV NL4.3 strain (analogs of TT-44881 (Table 1)) was 1 to 10 µM. This compound also registered a CC50 in data set [1] (analogs of TT-44881 (Table 1)) of over 100 µM.

For the compound `CCc1nccn1CCCNC(=O)C(C)(c1ccccc1)c1ccccc1` [3-56], the concentration for half-maximal inhibition (IC50) in the data set with HIV NL4.3 strain (analogs of TT-44856 (Table 3)) fell in the range of 10 to 20 µM. Besides, the CC50 in data set [1] (analogs of TT-44856 (Table 3)) is over 100 µM.

As for `CCC(C(=O)NCCCn1cnc2ccccc21)(c1ccccc1)c1ccccc1` [3-70], the IC50 in the data set with HIV NL4.3 strain (analogs of TT-44856 (Table 3)) lay within 20 to 50 µM. For the same compound, the CC50 in data set [1] (analogs of TT-44856 (Table 3)) lay in the range of 50 to 100 µM.

Take `COc1cc(NC(=O)Cn2cc(C(F)(F)F)cc(Cl)c2=O)cc(C(F)(F)F)c1` [compound 61]: the IC50 in the data set with HIV NL4.3 strain (analogs of TT-44863 (Table 2)) is over 100 µM. The 50% cytotoxic concentration (CC50) in data set [1] (analogs of TT-44863 (Table 2)) was over 100 µM.

With `O=C(NCc1ccc(Cl)cn1)c1cn(-c2ccc(F)cc2)c2ccccc12` [compound 41980], the IC50 in the data set with HIV NL4.3 strain (analogs of TT-44881 (Table 1)) was over 100 µM. For the same compound, half-maximal cytotoxicity in data set [1] (analogs of TT-44881 (Table 1)) (CC50) was put at 35.6 µM.

Consider `O=C(NCCCN1CCCC1=O)c1cn(-c2ccccc2)c2ncccc12` [compound 46751], for which the IC50 in the data set with HIV NL4.3 strain (analogs of TT-44881 (Table 1)) is over 100 µM. In data set [1] (analogs of TT-44881 (Table 1)), this compound registered a half-maximal cytotoxic concentration (CC50) of over 100 µM.

As to `COc1ccc(F)cc1NC(=O)Cn1cc(C(F)(F)F)cc(Cl)c1=O` [compound 46867], the IC50 in the data set with HIV NL4.3 strain (analogs of TT-44863 (Table 2)) is 10 to 30 µM. The CC50 in data set [1] (analogs of TT-44863 (Table 2)) was 50 to 100 µM.

As to `O=C(NCCCN1CCCC1=O)c1nn(-c2ccccc2)c2ccc(F)cc12` [compound 46820], in the data set on HIV NL4.3 strain (analogs of TT-44881 (Table 1)), the concentration for half-maximal inhibition (IC50) is 50 to 100 µM. The compound further yielded a 50% cytotoxic concentration (CC50) in data set [1] (analogs of TT-44881 (Table 1)) of over 100 µM.

Regarding `COCCOc1ccc(C(F)(F)F)cc1NC(=O)Cn1cccc(F)c1=O` [compound 46762], the concentration for half-maximal inhibition (IC50) in the data set with HIV NL4.3 strain (analogs of TT-44863 (Table 2)) is over 100 µM. The compound further registered a CC50 in data set [1] (analogs of TT-44863 (Table 2)) of over 100 µM.

As for `N#Cc1ccc(NC(=O)c2cn(-c3ccccc3)c3ccccc23)cc1` [compound 41905], in the data set on HIV NL4.3 strain (analogs of TT-44881 (Table 1)), the IC50 was in the range of 1 to 10 µM. In data set [1] (analogs of TT-44881 (Table 1)), the 50% cytotoxic concentration (CC50) was in the range of 1 to 10 µM.

Turning to `COc1ccc(C(F)(F)F)cc1NC(=O)Cn1cc(C)cc(Cl)c1=O` [compound 46809], in the data set on HIV NL4.3 strain (analogs of TT-44863 (Table 2)), the IC50 fell in the range of 1 to 10 µM. In data set [1] (analogs of TT-44863 (Table 2)), this compound gave a CC50 of over 100 µM.

For the compound `COc1ccc(C(F)(F)F)cc1NC(=O)Cn1cc(C(F)(F)F)cc(Br)c1=O` [compound 47055], the IC50 in the data set with HIV NL4.3 strain (analogs of TT-44863 (Table 2)) lay in the range of 1 to 10 µM. Further, in data set [1] (analogs of TT-44863 (Table 2)), the half-maximal cytotoxic concentration (CC50) is 50 to 100 µM.

For the compound `O=C(NCCCn1ccnc1)c1cc(O)c2cc(Cl)ccc2n1` [3-38], the IC50 in the data set on HIV NL4.3 strain (analogs of TT-44856 (Table 3)) is over 100 µM. For the same compound, the CC50 in data set [1] (analogs of TT-44856 (Table 3)) was over 100 µM.

`O=C(NCCCN1CCCC1=O)c1cn(-c2ccccc2)c2ccccc12` [compound 46878]: the IC50 in the data set on HIV NL4.3 strain (analogs of TT-44881 (Table 1)) fell in the range of 50 to 100 µM. In data set [1] (analogs of TT-44881 (Table 1)), this compound gave a 50% cytotoxic concentration (CC50) of over 100 µM.

Take `CCCCOCCC(C(=O)NCCCn1ccnc1)(c1ccccc1)c1ccccc1` [3-75]: the IC50 with HIV NL4.3 strain (analogs of TT-44856 (Table 3)) fell in the range of 50 to 100 µM. In addition, in data set [1] (analogs of TT-44856 (Table 3)), the CC50 is over 100 µM.

As to `O=C(NCCCN1CCCC1=O)c1c[nH]nc1C1CC1` [compound 46821], the IC50 in the data set with HIV NL4.3 strain (analogs of TT-44881 (Table 1)) was over 100 µM. In data set [1] (analogs of TT-44881 (Table 1)), the cytotoxic concentration (CC50) was over 100 µM.

For `COc1ccc(C(F)(F)F)cc1-c1noc(Cn2cc(C)cc(Cl)c2=O)n1` [compound 47198], in the data set with HIV NL4.3 strain (analogs of TT-44863 (Table 2)), the IC50 is over 50 µM. Moreover, the CC50 in data set [1] (analogs of TT-44863 (Table 2)) was over 50 µM.

`O=C(O)c1ccc(CNC(=O)c2cn(-c3ccccc3)c3ccccc23)cc1` [compound 41784]: the concentration for half-maximal inhibition (IC50) in the data set on HIV NL4.3 strain (analogs of TT-44881 (Table 1)) is over 100 µM. The compound further had a CC50 in data set [1] (analogs of TT-44881 (Table 1)) of over 100 µM.

(Values after patent US20260355184A1, “SMALL MOLECULE DEGRADERS OF HIV-1 TAT PROTEIN” (priority 2022, published 2026).)
